Reference: a melting point compilation (Tetko et al.; mined from patent text by program, amines drawn as free bases though some values may be those of a salt)

melting point	SMILES
153 to 155 °C	Cc1c(OCC(F)(F)F)ccnc1CSc1nc2cc(CO)ccc2[nH]1
145 to 146 °C	O=C(CCc1c[nH]c2ccccc12)NCC1CNc2ccccc2O1 (centres undefined)
150 to 152 °C	O=C1[C@H]2CCC[C@H]2N(C(=O)CCn2ccnc2)c2ccccc2N1Cc1ccccc1 (relative stereo)
169 to 170 °C	C#Cc1ccc2c(c1)C1(c3ccccc3-c3ccccc31)c1ccccc1-2
112 to 113 °C	CCC(C)C1CCCCC1NC(=O)c1sc(C)nc1C(F)(F)F (centres undefined)
132 to 133 °C	CCC(CC(N)=O)c1cccc2nc3n(c12)CCCN3c1ccc(Cl)cc1Cl (centres undefined)
161 to 164 °C	CC(C)C1Cc2cc(OCC(=O)O)c(Cl)c(Cl)c2C1=O (centres undefined)
239 to 242 °C	COc1cc(C)nc2nc(S(=O)(=O)Nc3c(Cl)ccc(C)c3Cl)nn12
193 to 194 °C	OCCCNc1ccc2ncnn2n1
161 to 162 °C	Cc1c(C)c2c(c(C)c1OCc1ccc(S(C)(=O)=O)cc1)C(c1ccc(C(C)C)cc1)C(C)(C)O2 (centres undefined)
112 to 115 °C	Cn1c(C(F)(F)F)cc(=O)n(-c2cc(OC(=O)Oc3ccccc3)c(Cl)cc2F)c1=O
71 to 73 °C	CCc1cccc(CC)c1NCC(=O)NN
153 to 154 °C	COc1cc(N2CCOCC2)ccc1Nc1nc(Nc2ccc3c(c2)CCCC(=O)N3C(C)C)ncc1Cl
253 to 255 °C	O=C1NC(=O)C(=Cc2cccs2)N1
142 °C	C[C@@H](CO)Oc1cc(Oc2ccc(C(=O)N3CCC3)cc2F)cc(C(=O)Nc2ccn(C)n2)c1
188 to 189 °C	O=C(CCl)Nc1c(Cl)cccc1SSc1cccc(Cl)c1NC(=O)CCl
182 to 184 °C	NC(=O)c1ncn2c1NCC=C2c1cccc(Cl)c1
128 to 130 °C	CCS(=O)(=O)CC(=O)Nc1c(C)cccc1C
158 to 159 °C	Nc1nc(N)c2ncn(C3OC(COCc4ccccc4)C(OCc4ccccc4)C3OCc3ccccc3)c2n1 (centres undefined)
149 to 150 °C	CCOC(=O)COc1cc(C2COc3c(C)c(C)c(NC(=O)CC(C)(C)C)c(C)c32)ccc1C(C)C (centres undefined)
76 to 78 °C	CCOc1ncnc(C(F)(F)F)c1CS(=O)(=O)C1=NOC(C)(CCl)C1 (centres undefined)
173 to 175 °C	CNC(=O)C=C1CSc2c(C(=O)OC(C)C)c(C)cn21
156 to 157 °C	O=[N+]([O-])c1cccc(OCc2nc3ccccc3s2)c1

melting point	SMILES
220 to 223 °C	CCn1nc(C)c2nc(C)nc(O)c21
228 to 230 °C	Cc1cc(C)nc(-n2nc(S(=O)(=O)Nc3c(F)cccc3F)nc2C)n1
110 to 116 °C	COc1ccc(-c2nc(CNC(=O)CCC(=O)O)sc2-c2ccc(OC)cc2)cc1
77 to 77.5 °C	CC(C)=C1CCC2(C1)C(=O)C=C(OC(C)C)CC2C (centres undefined)
202 to 203 °C	CC1(C)Oc2ccc(Cl)cc2[C@@H](N2CCCC2=O)[C@@H]1O (relative stereo)
252 to 254 °C	Fc1ccc(-c2[nH]c(C3CCCNC3)nc2-c2ccncc2)cc1 (centres undefined)
229 to 231 °C	COC(=O)c1cc(O)n[nH]1
254 to 256 °C	CN1CCC(c2[nH]c(=O)c3ccccc3c2-c2ccc(Cl)cc2)CC1
169 to 170 °C	Cc1nc(N2CCC(Cc3ccc(F)cc3)C2=O)sc1C(=O)NCc1cccnc1 (centres undefined)
125 to 128 °C	CNC(=O)N(O)C(C)c1ccc(OCc2ccccc2)cc1 (centres undefined)
54 to 56 °C	N=C(N)c1ccc2c(c1)C(CCNC(=O)c1ccc(-c3ccccn3)s1)CO2 (centres undefined)
118 to 119 °C	CCOC(=O)Cc1ccc(CCNC(=O)c2ccc(Cl)cc2)cc1
76 to 77 °C	COC(=O)CCC(=NO)c1ccccc1
180 to 184 °C	Cn1nnnc1CC(=O)c1cc(F)c(Cl)cc1N
45 to 50 °C	OC1CCCNC1CN1CCCC1 (centres undefined)
123 °C	Cc1ccc(COc2ccc(C(=O)NC[C@@H](C(=O)NO)N3CCCCC3)cc2)c2ccccc12
198 to 200 °C	Cc1ccc(-c2ccc(C(=O)Nc3ccc4nc(CN5CCCCC5)ccc4c3)cc2)cc1
242 to 244 °C	COc1cc(C(=O)O)cc(CCc2ccccc2)c1C(=O)O
260 to 264 °C	CN(C)c1ccc(C=C2SC(=S)N(CC(=O)O)C2=O)cc1
146 to 147 °C	O=c1ccn(-c2cccc(Cl)c2)nc1-c1ccnn1-c1ccccc1
114 to 116 °C	[N-]=[N+]=C(C(=O)CC1CC(=O)N1)C(=O)OCc1ccc([N+](=O)[O-])cc1 (centres undefined)
90 to 93 °C	CCCCCCOc1ccc(C(=O)Cl)cc1
60 to 62 °C	CCCCS(=O)(=O)NC1Cc2ccccc2C1

melting point	SMILES
115 to 117 °C	Cc1ccc(N2CCN3C(=O)CCC3C2=O)cc1 (centres undefined)
131 to 134 °C	O=C(c1ccc([N+](=O)[O-])cc1Cl)N1CCCCc2sccc21
138 to 140 °C	Cn1c(-c2ccccc2)c(CCC(=O)O)c2ccccc2c1=O
164 to 166 °C	O=C(Cc1csc(-c2c(O)cccc2O)n1)NC1C(=O)N2C(C(=O)OC(c3ccccc3)c3ccccc3)=CCSC12 (centres undefined)
294 to 298 °C	CN(C)c1ccc(C=C2SC(N3CCCC3)=NC2=O)cc1-c1cc(F)c(O)c(C23CC4CC(CC(C4)C2)C3)c1
104 to 105 °C	COc1ccc(OC)c(CN2CCc3cc(O)c(OC)cc3C2)c1
160 °C	O=C(Nc1cccc(Cl)c1)O[C@H]1COC(c2ccccc2)=N[C@@H]1c1ccccc1 (racemic)
276 to 278 °C	Cc1cccc(C)c1NC(=O)c1ccc(NC(=O)CN(C)C)cc1
230 to 235 °C	Cn1cnnc1COc1nn2c(-c3ccccc3)nnc2cc1-c1ccccc1
124 to 126 °C	CC(C)(C)OC(=O)N1CCn2c(-c3ccccc3)cc(C#N)c2C1
134 to 135 °C	COc1ccc(C(=C(C)C(=O)O)c2ccc(OC)cc2)cc1
98 to 99 °C	COc1c(Cl)ccc(C(=O)O)c1SC
157 °C	CC(C)N(C1CCCC1)S(=O)(=O)N[C@@H](Cc1ccc(NC(=O)c2c(Cl)cncc2Cl)cc1)C(=O)O
158 °C	CCOC(=O)c1cccn1CCN1CCC(=C2c3ccccc3CCn3ccnc32)CC1
160 to 162 °C	COC(=S)Nc1ccc(OCc2nc3ccccc3s2)cc1
99 to 100 °C	COC(=O)C(C)(C)CCCOc1cc(C)c(NC(C)=O)cc1C
133 to 139 °C	Nc1c(F)c(N2CCC(C3(N)CCC3)C2)c(F)c2c1c(=O)c(C(=O)O)cn2[C@@H]1C[C@@H]1F (some centres undefined)
146 to 148 °C	CCOC(=O)c1cn(-c2nc(NCc3ccc(OC)cc3)c(F)cc2F)c2c(F)c(F)c(F)c(NCc3ccccc3)c2c1=O
72 to 75 °C	CC(C)OC(=O)c1cc(-n2c(Cl)nc(C(F)(F)F)cc2=O)c(F)cc1Cl
163 °C	O=c1c2cnc3ccccc3c2on1-c1ccccc1
90.2 to 90.3 °C	N#Cc1cccc(-c2ccco2)n1
138 °C	CC#CCOc1ccc(S(=O)(=O)C(C(=O)NO)C2CCN(Cc3ccc(OC)cc3)CC2)cc1 (centres undefined)
105 to 107 °C	COc1ccc(NC(=O)C(=O)N2CCC(Cc3ccc(F)cc3)CC2)cc1

melting point	SMILES
149 to 150 °C	c1ccc2c(CN3CCN(c4ccc5c(c4)OCO5)CC3)n[nH]c2c1
77 to 78 °C	CC(C)Nc1cc2c(cc1C(=O)c1ccccc1)OCO2
163 to 165 °C	CCn1nnnc1C(C=CC=O)=C(c1ccc(F)cc1)c1ccc(F)cc1
251 to 253 °C	O=C(O)c1ccc(OCc2ccccc2)c(C23CC4CC(CC(C4)C2)C3)c1
236 to 237 °C	Cc1cc2[nH]c(=O)c(C(=O)O)c(-c3ccccc3C)c2cc1C
96.5 to 98 °C	COC(=O)c1ccccc1-c1cc(-c2ccc(OC)cc2)on1
143 to 145 °C	CC1(C)OC(c2ccc(S(N)(=O)=O)cc2)=C(c2cc3ccccc3o2)C1=O
153 to 155 °C	O=C(CN1CCN(C(=O)Nc2ccc(C(F)(F)F)cc2)CC1)N1CCC2(CC1)Cn1cc([N+](=O)[O-])nc1O2
295 °C	c1ccc2c(c1)[nH]c1c2ccc2cc[nH]c21
108 to 110 °C	O=C(O)C(Cc1ccccc1)Oc1ccc(-c2ccc(-c3c(Cc4ccc(O)c(O)c4)sc4ccccc34)cc2)cc1 (centres undefined)
143 to 144 °C	O=C(NCC(F)(F)F)C1(CCCCSc2nccs2)c2ccccc2-c2ccccc21
151 to 152 °C	CCc1cc(CO)nn1-c1ccc([N+](=O)[O-])cc1
179 to 198 °C	Cc1ccc2c(c1)C(=O)c1ccccc1S2(=O)=O
69 to 71 °C	CC(=O)c1ccc(OCCCCCCCc2cc(C)no2)cc1
52 to 54 °C	CCCCCCOc1ccc(CC2SC(=O)NC2=O)cc1 (centres undefined)
269 to 270 °C	COc1ccccc1Sc1c(O)c2c(Cl)cc(Cl)cc2[nH]c1=O
99 to 101 °C	CN(C)C(=O)OCCn1nc(-c2cc(C(C)(C)C)c(O)c(C(C)(C)C)c2)c2cccnc21
85.5 to 88.5 °C	OC(CSC1CCCCC1)CSC1CCCCC1
199 to 201 °C	CN(C)C(=O)NNC(=O)c1ccccc1
> 310 °C	CCc1nc(N)nc(N)c1N1CCN(c2ccc(C#N)cc2)CC1
121 to 122 °C	COC(=O)Nc1ccc(Br)c(F)c1

SMILES	melting point
Oc1ccc2c(c1)C13CCN(CC4CC4)C(C2)C1OCOC3 (centres undefined)	193 to 196 °C
CN(C)CCOC1(O)C=CC2=NC(C(=O)N3CC(CCl)c4c3ccc3ncccc43)=CC2=C1 (centres undefined)	209 to 215 °C
CCOP(=O)(OCC)N1CC2(C(=O)OC)COc3cc(C(F)(F)F)ccc3C2=N1 (centres undefined)	85 to 86 °C
CCc1nn(C)c2c1C(c1ccccc1)=NCC(C(=NO)C(=O)OC)=N2	225 to 227 °C
CC1=NN=C(c2ccc([N+](=O)[O-])cc2)c2cc(Cl)c(Cl)cc2C1	231 to 233 °C
Clc1ccc([C@H]2C[C@@H]3CC[C@@H]4[C@H]2C(=NOCc2ccccc2)CN34)cc1Cl	72 to 74 °C
C[C@]12CC(=O)[C@H]3[C@@H](CCC4=CC(=O)CC[C@@H]43)[C@@H]1CCC2=O	204 to 209 °C
CC1COC2(c3ccccc3)c3cc(Cl)ccc3NC(=O)CN12 (centres undefined)	84 to 98 °C
CN1CC(CN2CC(=O)NC2=O)CC2c3cccc4[nH]cc(c34)CC21 (centres undefined)	199 to 201 °C
